In patent US20250255867A1 (Kadmon Corporation, LLC, priority 2022, published 2025):

What was measured:
[1] = tested on: subjects with cGVHD; test: Example 2 phase II randomized study: cGVHD response per 2014 NIH Consensus Criteria (best ORR, organ ORR, DOR, time to response); assay type: in vivo, human; settings: for Best ORR: mITT
Method: All responses were assessed by the study site investigators.

[2] = tested on: subjects with BOS; test: Example 3 combined analysis: lung-specific NIH response in BOS; assay type: in vivo, human
Method: Subjects enrolled in the clinical studies described in Examples 1 and 2 served as the population for the combined analysis.
Patients with BOS were identified as: 1) % predicted forced expiratory volume in 1 second (% FEV1) of £79% at enrollment, and 2) clinician attribution of lung disease due to cGVHD.
In Example 1, lung function assessments were conducted at baseline and on Day 1 of each cycle for patients with suspected of known lung involvement. In Example 2, lung function assessments were conducted at baseline and at the time of response assessments: Day 1 of cycles 2-5 and then on Day 1 of every other cycle thereafter.
The severity of cGVHD was graded according to the 2014 NIH Consensus Criteria. […] According to these criteria, a complete response (CR) in the lung is defined as normal % FEV1 after previous involvement or in the absence of PFTs, a NIH lung Symptom Score of 0 after previous involvement. Partial response (PR) in the lung is defined as an increase by 10% predicted absolute value of % FEV1 or in the absence of PFTs, a decrease in NIH Lung Symptom Score by 1 or more points. Progression of lung disease is defined as a decrease by 10% predicted absolute value of % FEV1 or in the absence of PFTs, an increase in NIH Lung Symptom Score by 1 or more points, except 0 to 1.
Baseline characteristics were reported descriptively. Univariable and multivariable logistic regression analysis was performed to investigate clinical factors (listed in Table 1) that were associated with NIH lung response. Correlation analysis was performed to assess correlation among lung response metrics. All testing was two-sided at the significance level of 0.05. All analyses were performed using SAS 9.3 (SAS Institute Inc., Cary, NC), and R v3.5.2 (the CRAN project).

[3] = 200 mg BID (n = 66), 42 with organ involved
[4] = 200 mg BID (n = 66), 49 with organ involved
[5] = 200 mg QD (n = 66), 19 with organ involved
[6] = 200 mg daily (n = 66), mITT population
[7] = 200 mg twice daily (n = 66), mITT population
[8] = Total (N = 132), 100 with organ involved
[9] = Total (N = 132), mITT population
[10] = NIH Lung Score at baseline 1, 30 subjects
[11] = NIH Lung Score at baseline 2, 23 subjects
[12] = NIH Lung Score at baseline 3, 6 subjects

CC(C)NC(=O)COc1cccc(-c2nc(Nc3ccc4[nH]ncc4c3)c3ccccc3n2)c1 [Belumosudil, 2-{3-[4-(1H-indazol-5-ylamino)-2-quinazolinyl]phenoxy}-N-(propan-2-yl) acetamide]
PR, Liver ([1]; 200 mg BID (n = 66), 4 with organ involved): 0 n (%)
PR, Upper GI ([1]; 200 mg BID (n = 66), 10 with organ involved): 0 n (%)
PR, Esophagus ([1]; 200 mg BID (n = 66), 12 with organ involved): 0 n (%)
CR, Mouth [1, 3]: 17 (41) n (%)
ORR, Mouth [1, 3]: 24 (57) n (%)
CR, Eyes [1, 4]: 6 (12) n (%)
ORR, Joints and fascia [1, 4]: 33 (67) n (%)
PR, Skin ([1]; 200 mg BID (n = 66), 55 with organ involved): 13 (24) n (%)
PR, Lower GI ([1]; 200 mg QD (n = 66), 6 with organ involved): 0 n (%)
ORR, Upper GI ([1]; 200 mg QD (n = 66), 13 with organ involved): 8 (62) n (%)
CR, Esophagus [1, 5]: 9 (47) n (%)
PR, Esophagus [1, 5]: 0 n (%)
CR, responses occurring within 6 mo of treatment [1, 6]: 2 (3) n (%)
CR, responses occurring within 12 mo of treatment [1, 6]: 4 (6) n (%)
ORR for responses occurring within 6 mo of treatment [1, 6]: 47 (71) n (%)
Best ORR ([1]; 200 mg daily): 74%
CR, responses occurring within 6 mo of treatment [1, 7]: 1 (2) n (%)
CR, responses occurring within 12 mo of treatment [1, 7]: 2 (3) n (%)
ORR [1, 7]: 51 (77) n (%)
ORR for responses occurring within 12 mo of treatment [1, 7]: 50 (76) n (%)
PR, responses occurring within 6 mo of treatment [1, 7]: 47 (71) n (%)
PR, responses occurring within 12 mo of treatment [1, 7]: 48 (73) n (%)
Best ORR ([1]; 200 mg twice daily): 77%
Median increase in FEV1, lung CR based on normalization of FEV1 ([1]; 3 subjects, range, 18-25): 23%
PR, Esophagus ([1]; Total (N = 132), 31 with organ involved): 0 n (%)
CR, Eyes ([1]; Total (N = 132), 97 with organ involved): 14 (14) n (%)
CR, Joints and fascia [1, 8]: 20 (20) n (%)
ORR, Joints and fascia [1, 8]: 71 (71) n (%)
PR, Joints and fascia [1, 8]: 51 (51) n (%)
CR, Skin ([1]; Total (N = 132), 110 with organ involved): 18 (16) n (%)
CR, responses occurring within 6 mo of treatment [1, 9]: 3 (2) n (%)
CR, responses occurring within 12 mo of treatment [1, 9]: 6 (5) n (%)
PR, responses occurring within 6 mo of treatment [1, 9]: 92 (70) n (%)
PR, responses occurring within 12 mo of treatment [1, 9]: 93 (71) n (%)
Best ORR in subjects refractory to their last lines of therapy ([1]; in vivo): 75%
ORR, prior ruxolitinib therapy subgroup ([1]; pooled arms, n=38): 68%
ORR, prior ibrutinib therapy subgroup ([1]; pooled arms, n=46): 74%
Median increase in FEV1, all subjects achieving lung PR ([1]; range, 0-15): 10%
Overall median time to response ([1]; range, 4-66): 5 weeks
Median DOR ([1]; responder population): 54 weeks
Best ORR for pulmonary cGVHD, NIH response criteria ([2]; 59 subjects): 32%
PR for pulmonary cGVHD, NIH response criteria ([2]; 59 subjects): 17%
Lung-specific NIH response, Best ORR [2, 10]: 50%
Lung-specific NIH response, CR rate [2, 10]: 27%
Lung-specific NIH response, PR rate [2, 10]: 23%
Lung-specific NIH response, Best ORR [2, 11]: 17%
Lung-specific NIH response, CR rate [2, 11]: 4%
Lung-specific NIH response, PR rate [2, 11]: 13%
Lung-specific NIH response, Best ORR [2, 12]: 0%
Lung-specific NIH response, CR rate [2, 12]: 0%
Lung-specific NIH response, PR rate [2, 12]: 0%
Lung-specific NIH response, Best ORR ([2]; Total, 59 subjects): 32%
Lung-specific NIH response, CR rate ([2]; Total, 59 subjects): 15%
Lung-specific NIH response, PR rate ([2]; Total, 59 subjects): 17%
Best lung ORR ([2]; baseline NIH lung score 1): 50%
Lung CR ([2]; baseline NIH lung score 1): 27%
Lung PR ([2]; baseline NIH lung score 1): 23%
Best lung ORR ([2]; baseline NIH lung score 2): 17%
Lung CR ([2]; baseline NIH lung score 2): 4%
Lung PR ([2]; baseline NIH lung score 2): 13%
Best ORR for lung cGVHD, NIH response with PFTs alone ([2]; in vivo): 24%
CR for lung cGVHD, PFTs alone ([2]; in vivo): 10%
PR for lung cGVHD, PFTs alone ([2]; in vivo): 14%
Median time to first NIH lung response ([2]; range, 3-39): 5 cycles
Median time to best NIH lung response ([2]; range, 3-41): 7 cycles
